Assay results reported in paper PMC12867150, “A fungi-derived cyclic peptide enhances Th9-mediated antitumor immunity by targeting ZAP70 and SREBP1” (The Journal of Clinical Investigation, 2025).
Values joined by “and” are separate entries in the source; they are usually repeats but may differ in a detail not shown here. Equal values may be shown once.

Legend:
IL9, IRF4, and SPI1 mRNA = experiment: Quantitative PCR of IL9, IRF4 and SPI1 in human Th9 cells (Figure 8C); assay type: cell-based; details: result in words
Description: For Th9 polarization, cultures were supplemented with IL-4 (10 ng/mL, PeproTech, catalog AF-200-04), TGF-β (1 ng/mL), and neutralizing anti–IFN-γ monoclonal antibody (10 μg/mL, clone B27, BioXcell, catalog BE0245). After 3 days of initial culture, cells were either collected for downstream assays or continued in extended culture with refreshed cytokines to maintain lineage commitment without antibodies. Th9 cells were collected at days 4, 5, and 6 for subsequent in vitro assays. For adoptive transfer studies, day 4–cultured Th9 cells were washed and prepared for intravenous injection.
(§1) Total RNA was extracted from T cells using RNAex Pro Reagent (AG, catalog AG21102) following the manufacturer’s instructions. First-strand complementary DNA (cDNA) was synthesized using the Hifair III 1st Strand cDNA Synthesis SuperMix (YEASEN, catalog 11137ES10). Quantitative real-time PCR (qRT-PCR) was conducted on a QuantStudio 3 Real-Time PCR System (Thermo Fisher Scientific) using ChamQ Universal SYBR qPCR Master Mix (Vazyme, catalog Q711-02) and gene-specific primers (Tsingke Biotech).
(§2) For normalization, mouse samples were referenced to Gapdh or Actb, and human samples were normalized to GAPDH. Relative gene expression was calculated using the ΔΔCt method. Primer sequences are listed in Supplemental Table 5.

human Th9 CAR T cells [1] = experiment: Granzyme B+ CAR Th9 cells from spleens after transfer (S9H-I); assay type: in vivo, mouse; details: for Proportion of GzmB⁺ cells in spleen: Supplemental Figure 9I
Description: For xenograft models, M-NSG mice were intravenously inoculated with 1 × 10^6 Raji-CD19 tumor cells. On day 5 after inoculation, 2 × 10^6 CD19-CAR Th9 cells were administered intravenously to evaluate in vivo therapeutic efficacy. Tumor progression and immune cell infiltration were subsequently monitored according to experimental endpoints.
(§3) Details regarding staining panels (human and mouse), reagents (including clones and catalog numbers), acquisition settings, compensation/controls, and analysis procedures are provided in Supplemental Methods. […]
Th9 CAR-T c e l l s (n = 3). (H and I) Flow-cytometric analysis of granzyme B⁺ CAR-
Th9 cells isolated from spleens after adoptive transfer, showing representative plots
(H) and quantification (I) (n = 5 mice per group). Statistical analysis was performed
using one-way ANOVA with Tukey’s post hoc test (A and B), or two-tailed unpaired
Student’s t-test (E–G, and I). Repeated data are presented as mean ± SEM. *p < 0.05,
(also on this page, place not known: TP cells ANOV A 30IL-9+ cells (%) Fato Fato Fato Fato A SSC GzmB CtrlEpA MFIofMitoTracker (×102) GF NormalizedATPlevel CtrlEpA 4MFI of Mito Tracker (×105) CtrlEpA0 GzmB+ cells (%) CD4 10 20 IL-9+ cells (%) Day60 10 20 30 Ctrl)

ZAP70 = experiment: CETSA of ZAP70 in Jurkat cell lysates (Figure 5C-D); assay type: binding, Jurkat cells; details: result in words
Description: Jurkat or 293T cells were washed twice with PBS and resuspended in PBS containing protease and phosphatase inhibitors. Cells were lysed by 3 cycles of liquid nitrogen snap-freezing and thawing at room temperature. […] One aliquot from each group was maintained at room temperature, and the others were heated for 3 minutes at 3 °C increments from 43°C to 64°C. Samples were then analyzed by SDS-PAGE and immunoblotting to assess protein thermal stability and compound binding.

human Th9 CAR T cells [2] = experiment: IL-9 in human Th9 CAR T cells (S9D-E); assay type: cell-based; details: for IL-9 expression in human Th9 CAR-T cells: Supplemental Figure 9E; for IL-9 gate number: representative flow plot, Figure S9D
Description: as §3
(C) Flow-cytometric analysis of infection efficiency in Th9 cells transduced with a CD19-directed CAR lentivirus. (D and E) Flow-cytometric analysis of IL-9 expression in human Th9 CAR-T cells on days 5 and 6 of in vitro differentiation, showing representative plots (D) and quantification (E) (n = 3). […]
(H) and quantification (I) (n = 5 mice per group). Statistical analysis was performed using one-way ANOVA with Tukey’s post hoc test (A and B), or two-tailed unpaired Student’s t-test (E–G, and I). Repeated data are presented as mean ± SEM. *p < 0.05, […]
(also on this page, place not known: TP cells ANOV A 30IL-9+ cells (%) Fato Fato Fato Fato A SSC GzmB CtrlEpA MFIofMitoTracker (×102) GF NormalizedATPlevel CtrlEpA 4MFI of Mito Tracker (×105) CtrlEpA0 GzmB+ cells (%) CD4 10 20 IL-9+ cells (%) Day60 10 20 30 Ctrl) […]

[3] = test system: Il9 and Tnf mRNA in Th9 cells; experiment: Quantitative PCR of Il9 and Tnf mRNA with fatostatin or SREBP1 overexpression (Figure 7B, 7H, 7I); assay type: cell-based, mouse
Description: For murine T cell transduction, MIGR1-based retroviral vector encoding Srebf1 was used. HEK293T cells were transfected with these constructs using Lipofectamine 3000 (Thermo Fisher Scientific) to produce viral particles. Supernatants were collected between 48 and 72 hours after transfection, filtered through a 0.45 μm membrane, and stored at –80°C. Naive murine CD4^+ T cells were activated with plate-bound anti-CD3 (2 μg/mL, clone 17A2, BioXCell) and soluble anti-CD28 (1 μg/mL, clone 37.51, BioXCell) stimulation in the presence of subset-specific polarizing cytokines and then transduced with viral supernatant supplemented with polybrene (10 μg/mL).
as §1, §2

anteiso-C15 Leu7 surfactin [EpA]
IL9, IRF4, SPI1 mRNA (IL9, IRF4, and SPI1 mRNA): upregulated
granzyme B levels in CAR T cells after transfer (human Th9 CAR T cells [1]; result in words): elevated
Proportion of GzmB⁺ cells in spleen (human Th9 CAR T cells [1]; replicate 1): 22.5
Proportion of GzmB⁺ cells in spleen (human Th9 CAR T cells [1]; replicate 2): 28.9
Proportion of GzmB⁺ cells in spleen (human Th9 CAR T cells [1]; replicate 3): 40.8
Proportion of GzmB⁺ cells in spleen (human Th9 CAR T cells [1]; replicate 4): 84.4
Proportion of GzmB⁺ cells in spleen (human Th9 CAR T cells [1]; replicate 5): 47.4
granzyme B+ CAR Th9 gate number (human Th9 CAR T cells [1]; spleens after transfer, representative flow plot, Figure S9H): 47.4
thermal stability of ZAP70 (ZAP70): increased thermal stability of ZAP70
IL-9 expression in human Th9 CAR-T cells (human Th9 CAR T cells [2]; Day5, replicate 1): 27.7
IL-9 expression in human Th9 CAR-T cells (human Th9 CAR T cells [2]; Day5, replicate 2): 21.8
IL-9 expression in human Th9 CAR-T cells (human Th9 CAR T cells [2]; Day5, replicate 3): 25.1
IL-9 gate number (human Th9 CAR T cells [2]; Day5): 24.8
IL-9 expression in human Th9 CAR-T cells (human Th9 CAR T cells [2]; Day6, replicate 1): 6.55
IL-9 expression in human Th9 CAR-T cells (human Th9 CAR T cells [2]; Day6, replicate 2): 6.68
IL-9 expression in human Th9 CAR-T cells (human Th9 CAR T cells [2]; Day6, replicate 3): 6.84
IL-9 gate number (human Th9 CAR T cells [2]; Day6): 6.7
IL-9 production, Th9 CAR T (human Th9 CAR T cells [2]; result in words): increased IL-9 production
Il9 mRNA expression (quantitative PCR) ([3]; Figure 7B, EpA (10 µM) + Fatostatin (10 µM), individual replicates, (n = 3)): 42.4796 and 40.5146 and 54.9024
Il9 mRNA expression in Th9 cells ([3]; Figure 7H, MigR1 vector, individual replicates, (n = 3)): 17.2536 and 18.9128 and 17.6178
Il9 mRNA expression in Th9 cells ([3]; Figure 7H, overexpressing SREBP1, individual replicates, (n = 3)): 6.0458 and 5.242 and 5.497
Il9 mRNA expression in Th9 cells ([3]; Figure 7I, MigR1 vector, individual replicates, (n = 3)): 2.765 and 2.875 and 2.532
Il9 mRNA expression in Th9 cells ([3]; Figure 7I, overexpressing SREBP1, individual replicates, (n = 3)): 1.999 and 1.591 and 1.423
EpA-induced Il9 and Tnf mRNA increase upon SREBP1 overexpression ([3]; result in words): markedly suppressed
